# Measurements as given in patent US6656714B2, “Nucleic acids and proteins of a rat ganglioside GM1-specific α1→2 fucosyltransferase and uses thereof” (Northwest Hospital, priority 1999, dated 2003).
# Key:
# [1] = target: T1, catalytic domain of rat hepatoma H35 cell α1→2FucT (Rattus norvegicus, UniProt Q10984); experiment: α1→2Fucosyltransferase assay, pPROTA-expressed catalytic domain on IgG-agarose beads, transfer of [14C]fucose to glycolipid acceptors (TLC); assay type: biochemical; settings: 30 μg acceptor, 2 h at 37° C., 250 μg phosphatidylglycerol, GDP-[14C]fucose
# T1 construct: made in house; host or cells: COS-7 cells (secreted fusion protein, captured on IgG-agarose)
# T1 sequence (Q10984 28-380 isoform Q10984-2): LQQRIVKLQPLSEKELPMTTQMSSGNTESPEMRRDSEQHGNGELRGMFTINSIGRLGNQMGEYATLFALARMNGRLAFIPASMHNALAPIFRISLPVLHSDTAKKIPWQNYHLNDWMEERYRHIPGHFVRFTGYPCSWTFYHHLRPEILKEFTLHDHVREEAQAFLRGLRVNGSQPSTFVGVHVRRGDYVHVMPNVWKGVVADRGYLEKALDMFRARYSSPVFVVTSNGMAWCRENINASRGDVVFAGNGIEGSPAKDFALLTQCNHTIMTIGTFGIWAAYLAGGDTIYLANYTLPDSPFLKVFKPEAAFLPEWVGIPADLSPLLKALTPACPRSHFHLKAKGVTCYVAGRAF
# Experimental: For example, as illustrated in Section 6.3.2, infra, the activity of α1→2fucosyltransferase coupled to the IgG-binding domain of Protein A can be determined in reaction mixtures containing 2.5 μmol of HEPES buffer, pH7.2, 30 μg of GM1. ganglioside or nLc4, 250 μg phosphatidylglycerol, 1 μmol of MnCl2, 0.5 μmol of CDP-choline, 15 nmol of GDP-[^14C]fucose (15,000 cpm/nmol), and bound to IgG-agarose beads in a total volume of 0.1 ml. The reaction mixtures are incubated for 2 h at 37° C., terminated by the addition of 0.1 ml of CHCl3:CH3OH (2:1), streaked onto 4-cm-wide strips of Whatman 3 paper and developed with water overnight. The papers are dried and the labeled product extracted from the origins with 2- to 5-ml washes of CHCl3:CH3OH:H2O (10:5:1). The combined eluates are concentrated to dryness by an N2 stream and dissolved in 20 μl of CHCl3:CH3OH (2:1). A 10-μl aliquot of each is spotted onto a HP-TLC plate (Merck)and developed in a solvent system composed of CHCl3:CH3OH:H2O (60:40:9), 0.02% CaCl2.2H2O. […]
# α1→2Fucosyltransferase activity was determined in reaction mixtures containing 2.5 μmol of HEPES buffer, pH7.2, 30 μg of GM1 ganglioside or nLc4, 250 μg phosphatidylglycerol, 1 μmol of MnCl2, 0.5 μmol of CDP-choline, 15 nmol of GDP-[^14C]fucose (15,000 cpm/nmol), and pPROTA-expressed enzyme bound to IgG-agarose beads in a total volume of 0.1 ml. […]
# [2] = tested on: α1→2FucT; experiment: α1→2FucT enzyme activity in liver of AAF-fed rats; assay type: in vivo; settings: AAF-fed rat liver sample; none detected in normal liver
# [3] = target: T2, recombinant rat α1→2fucosyltransferase (Rattus norvegicus, UniProt Q10984); experiment: Preparative in vitro biosynthesis of fucosyl-GM1 with homogenate of COS-7 cells expressing rat α1→2fucosyltransferase (HPTLC); assay type: biochemical; settings: 0.5 mg GM1, 2 mg crude cell homogenate, after 24 to 48 hours
# T2 construct: Full length α1→2FucT cDNA was then cloned into pcDNA 3 vector; expressed in transfected cells; host or cells: COS-7 cells, transient transfection, sonicated homogenate
# T2 sequence (Q10984 1-380 isoform Q10984-2): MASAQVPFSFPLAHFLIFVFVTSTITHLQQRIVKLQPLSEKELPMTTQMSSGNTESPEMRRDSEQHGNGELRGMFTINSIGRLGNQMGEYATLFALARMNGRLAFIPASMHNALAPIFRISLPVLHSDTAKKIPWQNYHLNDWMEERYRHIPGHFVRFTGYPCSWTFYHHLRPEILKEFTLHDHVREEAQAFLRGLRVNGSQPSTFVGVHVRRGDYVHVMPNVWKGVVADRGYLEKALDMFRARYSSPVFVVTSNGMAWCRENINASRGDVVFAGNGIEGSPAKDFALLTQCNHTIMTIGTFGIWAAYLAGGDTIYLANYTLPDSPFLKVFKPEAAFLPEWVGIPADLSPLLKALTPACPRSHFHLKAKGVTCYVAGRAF
# Experimental: Preparative biosynthesis of fucosyl-GM1 was conducted in reaction mixtures composed of 25 μmol of HEPES buffer, pH 7.2, 10 μmol of MnCl2, 500 μg CHAPSO, 0.5 mg GM1, and 2 mg crude cell homogenate of COS-7 cells transiently transfected with plasmid containing the entire rat α1→2fucosyltransferase coding sequence in a total volume of 0.5 ml. Progress of the reaction was followed with time by withdrawing 2 μl of the reaction mixture and spotting it on an HPTLC plate. The plate was developed in a solvent system composed of CHCL3:CH3OH:H2O, 60:40:9, containing 0.02% CaCl2. Glycolipid bands were determined by orcinol spray (FIG. 9).
# [4] = target: T3, full length rat hepatoma α1→2FucT (Rattus norvegicus, UniProt Q10984); experiment: Enzyme assay of expressed recombinant full length α1→2FucT in homogenates of transfected COS-7 cells, transfer of [14C]fucose to GM1 (TLC); assay type: biochemical; settings: for transfer to GM1 in the presence of additive, compared with no detergent or phospholipid: CHAPSO 100 μg, phosphatidylglycerol 250 μg
# T3 construct: Full length α1→2FucT cDNA was then cloned into pcDNA 3 vector; expressed in transfected cells; host or cells: COS-7 cells, transient transfection, sonicated homogenate
# T3 sequence (Q10984 1-380 isoform Q10984-2): T2 sequence (Q10984 1-380 isoform Q10984-2)
# Text: Expression of full length α1→2FucT cDNA in transfected cells results in membrane-bound enzyme. COS-7 cells were transiently transfected by the DEAE-dextran method (Ausubel, F. M., et al., Current Protocols in Molecular Biology, Wiley, N.Y.) with either FL-RFT-pcDNA3 or FL-RFT(−)-pcDNA3. Four to five days later, the cells were harvested, sonicated in HEPES, glycerol, DTE buffer and assayed for enzyme activity as described previously (Sherwood, A. L., et al., 1998, Arch. Biochem. Biophys. 355:215-221).
transfer of fucose to acceptor [1],Molecule,"transfer to GM1 in the presence of additive, compared with no detergent or phospholipid [4]",other results
No detectable transfer,lactoneotetraosylceramide [nLcOse4Cer],,
,"CC(=O)Nc1ccc2c(c1)Cc1ccccc1-2 [AAF, N-2-acetylaminofluorene]",,α1→2FucT enzyme activity in liver [2]: moderate level
transfer fucose to GM1,II^3NeuAcGg4 [GM1],,conversion of GM1 to fucosyl-GM1 [3]: almost complete conversion; transfer of fucose to GM1 by full length enzyme ([4]; two hours at 37° C.): transfers fucose to GM1 with high efficiency
,C[C@H](CCC(=O)NCCC[N+](C)(C)CC(O)CS(=O)(=O)[O-])[C@H]1CC[C@H]2[C@@H]3[C@H](O)C[C@@H]4C[C@H](O)CC[C@]4(C)[C@H]3C[C@H](O)[C@]12C (stereo partly shown) [CHAPSO],Comparable transfer,
,phosphatidylglycerol,Somewhat less transfer,
